Reference: patent US8658000B2, “Preparation method of apigenin and dehydrosilybin mixture using radiation” (Korea Atomic Energy Research Institute, priority 2011, dated 2014)

Legend:
[1] = system: colon carcinoma cell line (SW620); test: EZ-Cytox cell viability assay, colon carcinoma cell line (SW620); assay type: cell-based; settings: Homo sapiens, SW-620; SW620, 50 μg/mL, 24 h, non-treated = 100
[2] = system: prostate carcinoma cell line (DU145); test: EZ-Cytox cell viability assay, prostate carcinoma cell line (DU145); assay type: cell-based; settings: Homo sapiens, DU-145; DU145, 50 μg/mL, 24 h, non-treated = 100
Method: (§1) To investigate the cancer cell inhibitory effect of the compounds of formulae 1 and 2 obtained by the preparation method according to the present invention, experiment was conducted. EZ-Cytox cell viability assay kit (Daeil Lab, Korea) was used to measure cancer cell growth inhibitory activity, and prostate carcinoma cell line (DU145), cervical carcinoma cell line (Hela), colon carcinoma cell line (SW480), and lung carcinoma cell line (H460) were used for cancer cells. All the cancer cells were incubated in 96-well plate at concentration of 5×10^4 cells/mL. After 24 h, dehydrosilybin compound of formula 1 and apigenin compound of formula 2 according to the present invention, and starting substance (i.e., silybin) as a control were treated at concentration of 50 μg/mL. After culturing at 37° C., 5% carbon dioxide environment, 24 h, 10 μL of kit solution was treated in each well. After 3 h of additional culturing, the optical absorbance was measured at 480 nm. The result is listed in Tables 3 to 6 and illustrated in FIGS. 2 to 7.

[3] = system: lung carcinoma cell line (A549); test: EZ-Cytox cell viability assay, lung carcinoma cell line (A549); assay type: cell-based; settings: Homo sapiens; A549, 50 μg/mL, 24 h, non-treated = 100
[4] = system: cervical carcinoma cell line (Hela); test: EZ-Cytox cell viability assay, cervical carcinoma cell line (Hela); assay type: cell-based; settings: Homo sapiens, 50 μg/mL, 24 h, non-treated = 100
Method: as §1

[5] = system: colon carcinoma cell line (SW480); test: EZ-Cytox cell viability assay, colon carcinoma cell line (SW480); assay type: cell-based; settings: Homo sapiens; SW480, 50 μg/mL, 24 h, non-treated = 100
Method: as §1

[6] = system: lung carcinoma cell line (H460); test: EZ-Cytox cell viability assay, lung carcinoma cell line (H460); assay type: cell-based; settings: Homo sapiens, NCI-H460; H460, 50 μg/mL, 24 h, non-treated = 100
Method: as §1

various cancers = settings: background statement; cited from earlier work

**Q.** With `COc1cc(C2Oc3cc(-c4oc5cc(O)cc(O)c5c(=O)c4O)ccc3OC2CO)ccc1O` (stereo not shown) [Compound of formula 1] as the compound, how does the viability at 50 µg/mL [1] read?
**A.** 27.8%

**Q.** What about the viability at 50 µg/mL [2] of the same compound?
**A.** 40.4%

**Q.** And the viability at 50 µg/mL [3]?
**A.** 58.9%

**Q.** What about the viability at 50 µg/mL [4] of the same compound?
**A.** 21.1%

**Q.** And the viability at 50 µg/mL [5]?
**A.** 41.7%

**Q.** What about the viability at 50 µg/mL [6] of the same compound?
**A.** 66.3%

**Q.** With `O=c1cc(-c2ccc(O)cc2)oc2cc(O)cc(O)c12` [Compound of formula 2, 5,7-dihydroxy-2-(4-hydroxyphenyl)-4H-chroman-4-one] as the compound, how does the viability at 50 µg/mL [1] read?
**A.** 39.4%

**Q.** What about the viability at 50 µg/mL [2] of the same compound?
**A.** 51.6%

**Q.** And the viability at 50 µg/mL [3]?
**A.** 72.1%

**Q.** And the “concentration at which apigenin can effectively act (anticancer activity)” value (various cancers)?
**A.** < 50 µM

**Q.** What about the viability at 50 µg/mL [4] of the same compound?
**A.** 38.7%

**Q.** And the viability at 50 µg/mL [5]?
**A.** 49.2%

**Q.** And the viability at 50 µg/mL [6]?
**A.** 97.4%
